Patent US20150126368A1, “METHOD OF PROVIDING PLANT WITH STRESS RESISTANCE” (Nippon Soda Co., Ltd., priority 2012, published 2015)

Columns and labels:
Type in all cases: in vivo
[1] = test system: Soybean (breed: Enrei); assay: Evaluation test for relief effects of acidity problem on soybean; conditions: hydroponic medium pH 4 from 2 days, disorder index 11 days after spray
Method: Soybean (breed: Enrei, 2 reprications) hydroponically grown up to the two leaf stage in a 100 ml flask was prepared.
(§1) A water dispersible granule of 30% ascorbyl palmitate and pyraclostrobin dissolved to 40% with N,N-dimethylformamide were diluted with tap water to a predetermined concentration, and the diluted solution was sprayed over the whole nursery plants in a sufficient amount. The water culture medium was adjusted to pH 4 with 1 N hydrochloric acid at the elapsed time of 2 days after the spray treatment, and the above soybean was continuously allowed to grow hydroponically. Disorder in the soybean was investigated at the elapsed time of 11 days after the spray treatment.
For disorder, a degree of necrosis was evaluated by 11 levels of disorder indices from 0 (no necrosis) to 10 (withering to death). From this, problem relief percentages were computed by the following formula.
Acidity problem relief percentage=((disorder index of untreated region)−(disorder index of each treated region))/(disorder index of untreated region)×100

[2] = test system: Tomato (breed: Reiryo); assay: Evaluation test for relief effects of strong light injury on tomato; conditions: summer blazing sun, 4 days after spraying
Method: Tomato (breed: Reiryo, 2 reprications) grown up to the two leaf stage in a greenhouse was prepared.
A water dispersible granule of 30% of ascorbyl palmitate and pyraclostrobin dissolved to 40% N,N-dimethylformamide were diluted with tap water to each of the concentrations described in Table 9, and the diluted solution was sprayed over the whole nursery plants in a sufficient amount. After air dried, they were exposed to strong light under summer blazing sun. A degree of disorder was investigated at the elapsed time of 4 days after the spraying.
For disorder, a degree of necrosis due to light effects was evaluated by 11 levels of disorder indices from 0 (no necrosis) to 10 (withering to death). From this, disorder relief percentages were computed by the following formula.
(§2) Injury relief percentage=((disorder index of untreated region)−(disorder index of each treated region))/(disorder index of untreated region)×100

[3] = test system: Eggplant (breed: Senryo 2 gou); assay: Evaluation test for relief effects of low temperature injury on eggplant; conditions: 13° C. daylight/8° C. dark, 15 days after spray
Method: Eggplant (breed: Senryo 2 gou, 3 reprications) grown up to the 4 to 6 leaf stage in a greenhouse was prepared.
A water dispersible granule of 30% ascorbyl palmitate and pyraclostrobin dissolved to 40% with N,N-dimethylformamide were diluted with tap water to a concentration described in Table 6, and the diluted solution was sprayed over the whole nursery plants in a sufficient amount. After air dried, they were allowed to grow for 1 day under conditions of 16 hours under a daylight condition at 18° C. and 8 hours under a dark condition at 13° C., and then allowed to grow under conditions of 16 hours under a daylight condition at 13° C. and 8 hours under a dark condition at 8° C. A degree of disorder was investigated at the elapsed time of 15 days after the spray treatment.
Disorders were evaluated by 4 levels of disorder indices of 0 (no color change), 1 (discolored up to ¼ of the whole), 2 (discolored up to ½ of the whole), 3 (discolored at ½ or more of the whole) with reference to the area of a discolored portion in an expanded leaf after treatment.
as §2

[4] = test system: Cucumber (breed: Sagamihanjirohushinari); assay: Evaluation test for relief effects of acidity problem on cucumber; conditions: hydroponic medium pH 4 from 2 days, leaf stage 17 days after spray
Method: Cucumber (breed: Sagamihanjirohushinari, 2 reprications) hydroponically grown up to the two leaf stage in a 100 ml flask was prepared.
as §1, with “ascorbic acid” for “ascorbyl”, “adjusted” for “dissolved”, “cucumber” for “soybean”, “Leaf stage of” for “Disorder in”, “17” for “at the elapsed time of 11”, “treatment. From this, disorder relief percentages were computed by the following formula.” for “treatment.”
Acidity problem relief percentage=((leaf stage of each treatment region)−(leaf stage of untreated region))/(leaf stage of untreated region)×100

[5] = test system: Tomato (breed: Reiyo); assay: Evaluation test for relief effects of low temperature injury on tomato; conditions: one night outside at average 0.5° C.
Method: Tomato (breed: Reiyo, 4 reprications) grown up to the 3.5 leaf stage in a greenhouse was prepared.
A water dispersible granule of 30% ascorbyl palmitate and pyraclostrobin dissolved to 40% with N,N-dimethylformamide were diluted with tap water to a concentration described in Table 7, and the diluted solution was sprayed over the whole nursery plants in a sufficient amount. After air dried, they were transferred to the outside of the greenhouse at an average temperature of 0.5° C. during night to investigate a degree of low temperature injury on the next morning.
Disorders were evaluated by 5 levels of disorder indices of 0 (no disorder) to 4 (complete withering). From this, disorder relief percentages were computed by the following formula.
Low temperature injury relief percentage=(disorder index of untreated region)−(disorder index of each treatment region)/(disorder index of untreated region)×100

[6] = test system: Cucumber (breed: Sagamihanjirohushinari); assay: Evaluation test for relief effects of submergence disorder on cucumber; conditions: flood from 2 days, raw weight 11 days after spray
Method: Cucumber (breed: Sagamihanjirohushinari, 2 reprications) grown up to the two leaf stage in a greenhouse was prepared.
A water dispersible granule of 30% ascorbyl palmitate and pyraclostrobin adjusted to 40% with N,N-dimethylformamide were diluted with tap water to a predetermined concentration, and the diluted solution was sprayed in a sufficient amount. They were subjected to flood conditions up to immediately below the cotyledon from 2 days after the spray treatment, and the raw weights of an above ground part and a root part of cucumber were each measured at the elapsed time of 11 days after the spray treatment. From this, injury relief percentages were computed by the following formula.
Flood injury relief percentage=((raw weight of each treatment region)−(raw weight of untreated region))/(raw weight of untreated region)×100

[7] = test system: Soybean (breed: Enrei); assay: Evaluation test for relief effects of salt injury on soybean; conditions: 0.1% aqueous sodium chloride from 2 days, raw weight 11 days after spray
Method: Soybean (breed: Enrei, 2 reprications) hydroponically grown up to the two leaf stage in a greenhouse was prepared.
A water dispersible granule of 30% ascorbic acid palmitate and pyraclostrobin adjusted to 40% with N,N-dimethylformamide were diluted with tap water to a predetermined concentration, and the diluted solution was sprayed over the whole nursery plants in a sufficient amount. After air dried, they were cultivated with normal irrigation in a greenhouse. Then, the irrigation conditions were changed to 0.1% aqueous sodium chloride solution in 2 cm depth from 2 days after the spraying, and cultivated up to 11 days after the spray treatment. Then the raw weights of an aerial part and a root part were each measured. From this, injury relief percentages were computed by the following formula.
Salt injury relief percentage=((raw weight of each treatment region)−(raw weight of untreated region))/(raw weight of untreated region)×100

[8] = ascorbyl palmitate 1000 ppm spray

## CCCCCCCCCCCCCCCC(=O)OC[C@H](O)[C@H]1OC(=O)C(O)=C1O [ascorbyl palmitate]
[1]; [8]
  relief percents of acidity problem(%): 43.8%
[2]; [8]
  relief percents of strong light injury (%): 50%
[3]; [8]
  relief percents of low-temperature injury(%): 13.0%
[4]; [8]
  relief percents of acidity problem(%): 15.6%
[5]; ascorbyl palmitate 500 ppm spray
  relief percents of low-temperature injury(%): 100%
[6]; [8]
  relief percents of flood injury in aerial part(%): 31.9%
  relief percents of flood injury in root(%): 41.5%
[7]; [8]
  relief percents of salt injury in aerial part(%): 20.4%
  relief percents of salt injury in root(%): 22.2%

## COC(=O)N(OC)c1ccccc1COc1ccn(-c2ccc(Cl)cc2)n1 [Pyraclostrobin, reference compound]
[1]; Pyraclostrobin 50 ppm spray
  relief percents of acidity problem(%): 12.5%
[2]; Pyraclostrobin 50 ppm spray
  relief percents of strong light injury (%): 40%
[3]; Pyraclostrobin 50 ppm spray
  relief percents of low-temperature injury(%): 13.0%
[4]; Pyraclostrobin 50 ppm spray
  relief percents of acidity problem(%): 15.6%
[5]; Pyraclostrobin 50 ppm spray
  relief percents of low-temperature injury(%): 25%
[6]; Pyraclostrobin 50 ppm spray
  relief percents of flood injury in aerial part(%): 61.7%
  relief percents of flood injury in root(%): 39.0%
[7]; Pyraclostrobin 50 ppm spray
  relief percents of salt injury in aerial part(%): 3.2%
  relief percents of salt injury in root(%): 2.5%
